Data on 98 compounds can be found in ChEMBL document CHEMBL3507680, “University of Dundee, Gates Library screen for HepG2 cell viability”.

A short description of this series: Human HepG2 cell viability assay in 384 well format. Type of series: toxicity, cell-based. Particulars: HepG2 cells, read-out: Inhibition. The arrangement: dose 125 nL, time 70.5 hour; cytotoxicity at 70.5 h: concentration not given beside the values.
With `CS(=O)(=O)CC(=O)N1C[C@@H]2CN(Cc3ccoc3)CCO[C@@H]2C1`, the cytotoxicity at 70.5 h is -12%.

As for `CC(C)(N)CN1CCC(c2nnc(CN3CCCC3)n2C2CC2)CC1`, the cytotoxicity at 70.5 h is -0.439%.

As for `CCN(Cc1ccc(C#N)cc1F)C(=O)CN(C)CC(N)=O`, the cytotoxicity at 70.5 h was -4.58%.

`Cc1cc(CN2CCOC(CN(C)C)C2)no1` (stereo not drawn): the cytotoxicity at 70.5 h stood at 9.18%.

Turning to `CC(=O)N1CCCC(c2ccc(C(N)=O)cn2)C1` (stereo not drawn), the cytotoxicity at 70.5 h was -8.88%.

Take `CNC(=O)CN1CCO[C@H]2CN(CC3CCOCC3)C[C@H]21`: the cytotoxicity at 70.5 h was -2.33%.

With `CCN1CCN(S(=O)(=O)c2cc(Cl)c(Cl)cc2C)CC1`, the cytotoxicity at 70.5 h is -2.4%.

Regarding `Cn1cnc(CN2Cc3nccn3CC2c2ccccc2)c1` (stereo not drawn), the cytotoxicity at 70.5 h was -7.94%.

As for `CCc1nc(C2CCCN2C(=O)c2ccc(=O)n(CC)n2)no1` (stereo not drawn), the cytotoxicity at 70.5 h was found to be 4.08%.

In the case of `Cn1ncc(N2CCOC(CCNC(=O)CO)C2)cc1=O` (stereo not drawn), the cytotoxicity at 70.5 h was found to be 13.3%.

Consider `Fc1cccc(CN2CCC(c3noc(-c4cnccn4)n3)CC2)c1F`, for which the cytotoxicity at 70.5 h was -0.815%.

For the compound `CCCn1nnnc1CN(c1ccc(N2CCOCC2)cc1)C(C)C`, the cytotoxicity at 70.5 h is -8.46%.

As for `CN1CCCN(S(=O)(=O)c2cn(C)cn2)c2cc(Cl)ccc21`, the cytotoxicity at 70.5 h is -0.299%.

Regarding `CCCOc1ncccc1CNc1nnc(C)c(C)c1C#N`, the cytotoxicity at 70.5 h amounted to 21.8%.

As to `N#Cc1ccccc1OCCN1CCC(N2CCNC2=O)CC1`, the cytotoxicity at 70.5 h is -11.9%.

In the case of `CC(C(=O)Nc1ccccn1)n1ccc(C(F)(F)F)n1` (stereo not drawn), the cytotoxicity at 70.5 h was -15.3%.

As to `Cc1n[nH]c(C2CN(CCCOc3cccc(Cl)c3)CCO2)n1` (stereo not drawn), the cytotoxicity at 70.5 h was -14.2%.

For `CC(C)(C)n1ncc2c1NC(=O)CC2c1ccc(OCC(N)=O)cc1` (stereo not drawn), the cytotoxicity at 70.5 h is -10.7%.

In the case of `O=C1CCCN1Cc1ncn2c1CN(C(=O)Cc1cccs1)CCC2`, the cytotoxicity at 70.5 h was -1.17%.

As for `CCSCCC(C)N(C)C(=O)c1cc(C)no1` (stereo not drawn), the cytotoxicity at 70.5 h was -2.61%.

For the compound `CCc1noc(CNc2ccc(CC(=O)N3CCSCC3)cc2)n1`, the cytotoxicity at 70.5 h was -6.52%.

`CC(=O)Nc1cccc(Cn2nc(C)nc2C)c1`: the cytotoxicity at 70.5 h is -6.2%.

For `Clc1ccccc1-c1nnc(CN2CCCC2Cn2cncn2)o1` (stereo not drawn), the cytotoxicity at 70.5 h is -2.55%.

With `Cc1nc(-c2ccc(S(=O)(=O)N3CCOCC3)cc2)co1`, the cytotoxicity at 70.5 h was -6.53%.

For `Cc1ccc(N[C@@H]2CN(Cc3cc(C)on3)C[C@@H]3CCCO[C@@H]32)nn1`, the cytotoxicity at 70.5 h worked out at 2.24%.

With `CN(CCN1CCCCC1)C(=O)c1cc(CN2CCOCC2)on1`, the cytotoxicity at 70.5 h was 2.75%.

On to `CC1(C)CN(C(CNC2=NCCN2)c2ccc(Cl)cc2)CCO1` (stereo not drawn), for which the cytotoxicity at 70.5 h is -5.1%.

For `Cn1ncc(C(=O)OCC2CC(=O)N(c3ccccc3)C2)c1C(F)F` (stereo not drawn), the cytotoxicity at 70.5 h is -9.29%.

For `Cc1cc(C)n(-c2ccc(C(=O)NCc3cncn3CC(C)C)cc2)n1`, the cytotoxicity at 70.5 h was -1.13%.

In the case of `CCc1cccc(C)c1NC(=O)c1ccccc1N(C)S(C)(=O)=O`, the cytotoxicity at 70.5 h stood at 26.1%.

Take `CNC(=O)[C@@]12CCCN(c3ncccn3)[C@@H]1CN(C)C2`: the cytotoxicity at 70.5 h worked out at 29.8%.

On to `COc1ccc(CC(=O)N2CCCCC2Cn2cc(C)cn2)cc1F` (stereo not drawn), for which the cytotoxicity at 70.5 h came out at 2.82%.

Regarding `CC(=O)Nc1ccc(Oc2ccc3c(c2)OCO3)nc1`, the cytotoxicity at 70.5 h is -12.3%.

For the compound `CCOc1ccc(N2CCCN=C2NC(=O)c2cccc(OC)c2)cc1`, the cytotoxicity at 70.5 h turned out to be 2.56%.

`N#Cc1c(SCCN2CCOCC2)sc2c(O)cc(O)nc12`: the cytotoxicity at 70.5 h was 17.3%.

On to `Cc1cc(O)cc(=O)n1CCCC(=O)Nc1n[nH]c2cc(Br)ccc12`, for which the cytotoxicity at 70.5 h is -13.4%.

`COCCNC(=O)Nc1ccc(C(=O)N2CCSCC2)cc1C`: the cytotoxicity at 70.5 h is -12.4%.

Turning to `NC(=O)c1nnn(-c2ccc(Br)cc2)n1`, the cytotoxicity at 70.5 h was determined as 33.2%.

Turning to `CNC(=O)c1ccc(CNC(=O)c2cc(C(C)C)n(C)n2)cc1`, the cytotoxicity at 70.5 h came to 10.9%.

On to `O=C1CCC2(CCCN(c3ncnc4[nH]cnc34)C2)CN1CCCO` (stereo not drawn), for which the cytotoxicity at 70.5 h was -14.3%.

For the compound `Cc1nccc(N2CCC(Cc3cccc(C(=O)O)c3)CC2)n1`, the cytotoxicity at 70.5 h is -6.88%.

With `CC(NC(=O)CCCn1cnc2ccccc2c1=O)c1ncn[nH]1` (stereo not drawn), the cytotoxicity at 70.5 h is -15.2%.

For `Cn1ccnc1CN1CC[C@H]2CO[C@H](CNc3ncccn3)[C@H]2C1`, the cytotoxicity at 70.5 h was -5.82%.

Consider `NC(=O)c1cnn2c1NCC(CNCCc1ccco1)C2` (stereo not drawn), for which the cytotoxicity at 70.5 h was -1.07%.

For the compound `CCn1nc(C(=O)N2CCCC(n3cncn3)C2)ccc1=O` (stereo not drawn), the cytotoxicity at 70.5 h was -14.8%.

`CCOCC1CN(C(=O)c2cccn2C)Cc2cnn(CC3CC3)c21` (stereo not drawn): the cytotoxicity at 70.5 h was 0.525%.

As to `Cc1ccc(-c2nc(CCNC(=O)NC3CCN(C)CC3)co2)cc1`, the cytotoxicity at 70.5 h is -4.33%.

Take `Cc1csc(CNC(=O)N(C)Cc2ccc([S+](C)[O-])cc2)n1` (stereo not drawn): the cytotoxicity at 70.5 h is -5.11%.

Take `N#Cc1ccc(N2CCCC(CO)(CCOc3ccccc3)C2)nc1` (stereo not drawn): the cytotoxicity at 70.5 h was -6.22%.

As for `Cc1cc(C)c(CNC(=O)C(C)Oc2cccc(C#N)c2)c(=O)[nH]1` (stereo not drawn), the cytotoxicity at 70.5 h is -11.6%.

Regarding `CCc1c(C(=O)O)nnn1-c1cc(C)ccc1C`, the cytotoxicity at 70.5 h was -2.96%.

Consider `COc1ccc(C(=O)N2C[C@@H](c3ccccc3)[C@@H]3NCCCC[C@@H]32)cc1`, for which the cytotoxicity at 70.5 h was -8.54%.

`Cc1nc(Nc2nnc(C)s2)cc(C2CCCN2)n1` (stereo not drawn): the cytotoxicity at 70.5 h is -6.91%.

Consider `CCn1ncnc1C(C)Nc1cc(C)c2ccc(SC)cc2n1` (stereo not drawn), for which the cytotoxicity at 70.5 h is -11.1%.

For `COCC(=O)N1CCC2(C1)c1ccccc1S(=O)(=O)N2CC1CC1` (stereo not drawn), the cytotoxicity at 70.5 h is -8.07%.

Turning to `COC(=O)[C@H]1CCCCN1C(=O)c1cccc(-n2cccn2)c1`, the cytotoxicity at 70.5 h was -4.76%.

As for `CCc1cnc(CN(C)C2CCN(CCn3cc(C#N)cn3)C2)o1` (stereo not drawn), the cytotoxicity at 70.5 h is 16.4%.

With `COc1ccc(S(=O)(=O)N2CCc3ccc(Cl)cc32)cc1C(=O)O`, the cytotoxicity at 70.5 h was 0.6%.

Take `CCCn1cc(C(=O)N[C@H]2CC[C@H](n3cnnc3)CC2)c(C)n1`: the cytotoxicity at 70.5 h stood at 0.742%.

For `CC(NC(=O)c1cc(N2CCNC2=O)ccc1F)c1ccc(F)cc1` (stereo not drawn), the cytotoxicity at 70.5 h was -4.65%.

For `CN(C)C(=O)C1CCC2(CCN(Cc3ccc4ccccc4n3)CC2)O1` (stereo not drawn), the cytotoxicity at 70.5 h is -8.67%.

In the case of `CC(=O)c1cccc(S(=O)(=O)NCC(C)(O)c2cccs2)c1` (stereo not drawn), the cytotoxicity at 70.5 h was -7.85%.

`Cc1nc2cc(=O)[nH]n2c(C)c1CC(=O)Nc1cn[nH]c1`: the cytotoxicity at 70.5 h is -2.66%.

Consider `Cn1cc(NC(=O)Nc2ccccn2)cc(Cl)c1=O`, for which the cytotoxicity at 70.5 h worked out at 9.47%.

Regarding `CN1C[C@@H]2CC[C@H](C1)N(Cc1ccccc1OCCN1CCOCC1)C2`, the cytotoxicity at 70.5 h was determined as 1.83%.

Take `O=S(=O)(C1CC1)N1CCO[C@@H]2CC(COCc3cccnc3)C[C@H]21` (stereo partly drawn): the cytotoxicity at 70.5 h is -2.81%.

Take `CN1CC(=O)N(c2ccsc2)CC12CCN(C(=O)c1ccc[nH]1)C2` (stereo not drawn): the cytotoxicity at 70.5 h came to 8.85%.

Consider `CC(C)=CCC/C(C)=C/CN1CCN(C)C2(CCNC(=O)CC2)C1` (stereo not drawn), for which the cytotoxicity at 70.5 h is -9.38%.

Turning to `NC(=O)CN1CCC(NC(=O)c2ccn(-c3cccc(F)c3)n2)CC1`, the cytotoxicity at 70.5 h was -3.27%.

Consider `Cc1cc(C(=O)N2CCCN(Cc3cnn(C)c3)CC2)no1`, for which the cytotoxicity at 70.5 h was -3.47%.

Consider `Cc1ccc(CN2CC[C@@H]3[C@@H]2CCN3C(=O)Cc2cccs2)o1`, for which the cytotoxicity at 70.5 h was -5.34%.

`COc1ccc(CN2Cc3cn(C)nc3C(COCC3CC3)C2)cc1` (stereo not drawn): the cytotoxicity at 70.5 h is -4.4%.

Turning to `CC(c1cccc(-c2ncc(C#N)c(N)n2)c1)N(C)C` (stereo not drawn), the cytotoxicity at 70.5 h is -12.5%.

`Cc1cc(CN(Cc2cccs2)CC2CCCO2)on1` (stereo not drawn): the cytotoxicity at 70.5 h turned out to be 20.8%.

For `CCn1nc(C)c2nc(C(C)C)nc(N3CCCCC3)c21`, the cytotoxicity at 70.5 h is -11.3%.

As to `CCc1nnc(SC2CCCN(c3cnn(C)c3)C2=O)n1C` (stereo not drawn), the cytotoxicity at 70.5 h was -12.6%.

As for `CCCSc1nc(N)c(NC(=O)c2ccc(OC)c(OC)c2)c(=O)[nH]1`, the cytotoxicity at 70.5 h was 12%.

Consider `Cn1ccc(C(=O)NCc2ccccc2CN2CCCC2)cc1=O`, for which the cytotoxicity at 70.5 h worked out at 16%.

With `O=C(c1ccncc1F)N1CCN(CC2CC2)c2ncccc2C1`, the cytotoxicity at 70.5 h stood at 24.5%.

For the compound `O=C(CCC1CCN(Cc2ncc[nH]2)CC1)Nc1ccccc1Cl`, the cytotoxicity at 70.5 h is -10.7%.

Consider `CC1CCN(C(=O)C(C)Oc2ccc3c(c2)OCO3)CC1` (stereo not drawn), for which the cytotoxicity at 70.5 h was 8.31%.

`Cc1ccc(NC2COC3(CCN(Cc4ccn(C)n4)CC3)C2)nn1` (stereo not drawn): the cytotoxicity at 70.5 h was -7.47%.

As for `c1ccc(-c2cc(CN3C[C@@H]4CC[C@H](C3)N(CC3CC3)C4)on2)cc1`, the cytotoxicity at 70.5 h is -6.85%.

On to `COc1ccc(CNC(=O)N(Cc2ccc(F)cc2F)C2CC2)cn1`, for which the cytotoxicity at 70.5 h is 18.5%.

With `CC(C)CC(=O)N1CCc2nc(N3CCOCC3)nc(NC(C)C)c2C1`, the cytotoxicity at 70.5 h was -15.8%.

With `OCC1CCCN1c1cc(NCCc2ccccn2)ncn1` (stereo not drawn), the cytotoxicity at 70.5 h stood at 14.5%.

With `CN(C)CCN1C(=O)CCC12CCCN(C(=O)N(C)C)CC2` (stereo not drawn), the cytotoxicity at 70.5 h stood at 0.00398%.

For the compound `CCN(CCO)C[C@@H]1CN(C(=O)c2ccc(C)s2)C[C@@H]1CO`, the cytotoxicity at 70.5 h amounted to 34.8%.

On to `Cc1cccc2nc(CSCC(=O)Nc3nnc(C(C)C)s3)cc(=O)n12`, for which the cytotoxicity at 70.5 h was -10.6%.

Regarding `COCC(=O)NC1CC2(CCN(CCN(C)C)CC2)c2ccccc21` (stereo not drawn), the cytotoxicity at 70.5 h is -2.09%.

For the compound `COc1ccc(N(CCC(N)=O)C(=O)CSc2ccc(F)c(F)c2)cc1`, the cytotoxicity at 70.5 h was -12.7%.

For `COc1ccc(-c2noc(CN3CCOCC3C)n2)cc1OC` (stereo not drawn), the cytotoxicity at 70.5 h was -10.5%.

As to `O=C(CCc1cccs1)N1CCCCC1Cn1cccn1` (stereo not drawn), the cytotoxicity at 70.5 h was -5.08%.

For the compound `COCC(=O)N1Cc2nccn2CC(CN(C)Cc2cccnc2)C1` (stereo not drawn), the cytotoxicity at 70.5 h is -7.06%.

`CC(=O)N1CCC(N2CCN3C(=O)N(Cc4ccccn4)C[C@H]3C2)CC1`: the cytotoxicity at 70.5 h was -1.05%.

For the compound `O=C(c1cncc(N2CCC3(CC2)NCCNC3=O)n1)N1CCCCC1`, the cytotoxicity at 70.5 h was -4.89%.

As to `CCc1nc(CN(C)CC(=O)N(C)C2CC2)cs1`, the cytotoxicity at 70.5 h is -12.2%.

`Cc1nn(CC(C)C)c(C)c1CC(=O)N1CCCC(NS(C)(=O)=O)C1` (stereo not drawn): the cytotoxicity at 70.5 h was -3.7%.
